Several values for one entry are separate records, joined by “and”; a condition that tells them apart may be missing. Equal values may be shown once. Where a name gives a salt, the structure may show the parent alone.
Legend:
[1] = Duration of vomiting and retching in dog after daily subcutaneous apomorphine HCl (Example 1); type: in vivo
[2] = Number of dogs acclimatized to retching/vomiting; blood pressure and heart rate (Example 2); type: in vivo, dog
Description: This study provides a different view of data recorded in Example 1.
Observations were made at three different dosage levels, 0.04, 0.1 and 0.4 mg/kg/day. No dose escalation was attempted in this study. A group of five dogs was used for tests at each dosage level. The number of dogs in each dosage group with a retching or vomiting episode in each post-administration time period was recorded for daily administration over about 180 days. Ten day averages were calculated and plotted (see FIGS. 3 through 6).
The blood pressure and heart rates of an untreated group of dogs was evaluated for comparison purposes.

[3] = Penile erectile response ([…] score) with erotic and neutral videos (Example 5); type: in vivo, human; settings: for Total RIGISCAN Score, Erotic 1: N = 31-36, ** significantly higher than placebo 1 and 2
Description: Each of the selected subjects' penile erectile response (measured with the […]™ ambulatory tumescence monitor) was evaluated using the scoring system as set out in Table IX, below.
The combining of the scores of A, B, C, and D from Table IX yields a total score for each subject. A total score of less than 16 for any individual subject indicates erectile dysfunction.
Patients not experiencing nausea or any other significant adverse effects within fifteen minutes post-dosing with APO or placebo viewed segments of standardized erotic videos to provide sexual stimulation. […] The duration of the testing session for each dose level lasted between 45 and 60 minutes.
This aim was accomplished during the first two phases of the study in which subjects were attached to the […]™ monitor. Subjects were initially treated with placebo, followed by APO 4, 6, and 8 mg. tablets with a placebo tablet randomly interspersed in the treatment.

[4] = Take-home erection results, VAS questionnaire question 1 (Example 5, Phase III); type: in vivo, human; settings: for Erection Results (Maximum) Percent Change from Baseline, LSMEAN: all sites; for Erection Results (Maximum) Percent Change from Baseline, MEAN: all doses, site #1, #2, #3, #4, listed as APO
Excerpt: (§1) During the five-week, home-use phase, subjects were to attempt coitus at least once each week after taking a single APO tablet. After each attempt, the subject and their partner completed a Sexual Function questionnaire (See FIGS. 15 and 16) which was later evaluated and used for final statistical analysis.
(§2) For the third phase, subjects had recorded at baseline, their satisfaction,erection, number of attempts, and successful intercourse on a VAS scale (see Tables Xa-Xc, above). Evaluateable subjects first recorded a success rate, then completed VAS for erection results and satisfaction with intercourse following take-home treatment. The success rates, as shown in Tables XVa-XVb, below, were calculated for milligrams of APO as well as for micrograms per kilogram of the patient's body weight doses (males). There were four criteria for recording a success in the take-home phase. […] Several evaluations of the data were made including the male and female responses to treatments via questionnaires (see FIGS. 15 and 16).
(§3) Tables XVIIa--XVIId, below, show the statistical results of phase III with respect to Rigiscan™ results (a and b) and intercourse satisfaction (c and d) based on question 1 and question 3, respectively, from the completed questionnaires (see FIGS. 15 and 16). […] The maximum improvement from baseline were 56% in males and 59% in females. The mean improvement were 29% in males and 34% in females. […] The mean improvements were 34% in females and 45% in males.

[5] = Take-home intercourse satisfaction, VAS questionnaire question 3 (Example 5, Phase III); type: in vivo, human; settings: for Satisfaction Percent Change from Baseline, LSMEAN / Satisfaction Percent Change from Baseline, MEAN: MALE
Excerpt: as §1, §2, §3

[6] = mouse, cited from earlier work
[7] = 100-400 μg/kg, up to four days, primates; cited from earlier work
[8] = single bolus subcutaneous injection, mammals; cited from earlier work
[9] = Side effects after subcutaneous, sublingual and oral apomorphine HCl in dog (Example 3)

CN1CCc2cccc3c2[C@H]1Cc1ccc(O)c(O)c1-3 [apomorphine HCl]
time to acclimatization (retching and vomiting) ([1]; 0.4 mg/kg/day s.c.): about 10 days
effect of escalation on vomiting/retching ([1]; 0.8 mg/kg/day after 21 days at 0.4 mg/kg/day): no evidence of an increase in vomiting/retching
wash out period required to establish homeostasis ([1]; after CNS supersensitivity): 4 to 6 weeks
effect of increasing dose by 100% of the acclimation dose on duration ([1]; after acclimation established): no corresponding increase in the duration of retching and vomiting
movement disorders ([1]; dose reduced from 1.2 to 0.8 mg/kg/day): movement disorders were again observed
average duration of retching/vomiting period ([1]; following daily administration): about 5 minutes
average duration of retching/vomiting period ([1]; following initial dose): about 30 minutes
time to acclimatization (retching and vomiting) ([1]; lower doses (0.05 mg/kg start), s.c. daily): ≤ 3 days
effect of challenge on duration of vomiting ([1]; lower doses, after 12 days, dose 100% greater than acclimatized dose): Only a small increase in the duration of vomiting
daily treatment needed for 80 percent effective acclimation ([2]; 0.4 mg/kg/day s.c.): about 3 months
net changes in blood pressure ([2]; after 5 months chronic treatment, vs untreated controls): not significantly different from the controls
heart rate after administration ([2]; after 5 months chronic treatment, 0.04, 0.1, 0.4 mg/kg/day): tachycardia sometimes occurs
bradycardia ([2]; initially, lost by acclimation): badycardia was reported in some subjects
RIGISCAN score, erotic #1, comparison in words ([3]; 4 mg, Site #1): slightly lower
Penile Measurements (Maximum Increases), LSMEAN, NEUTRAL ([3]; 4 mg, b698 all sites, b704 site #1, b710 #2, b716 #3, b722 #4, listed as APO): 8.70
Total RIGISCAN Score, Erotic 1 ([3]; 6 mg): 17.09 ± 1.64
Penile Measurements (Maximum Increases), MEAN, NEUTRAL ([3]; 6 mg, b699 all sites, b705 site #1, b711 #2, b717 #3, b723 #4, listed as APO): 9.60
Total RIGISCAN Score, Erotic 1 ([3]; 8 mg): 19.84 ± 1.61
Total RIGISCAN Score, Neutral ([3]; 8 mg, N = 41-48, **): 11.95 ± 1.37
Penile Measurements (Maximum increase), Mean, EROTIC #1 ([3]; 8 mg, all sites, site #1, #2, #4, listed as APO): 19.84 and 15.60 and 25.00
RIGISCAN scores, treatment effect vs second placebo in words ([3]; 4, 6, and 8 mg): most of the treatment effects were significant to highly significant compared to the second placebo
RIGISCAN scores, treatment effect in words ([3]; 4, 6, and 8 mg vs initial placebo): significant to highly significant
RIGISCAN scores for penile increases in words ([3]; active doses, each of four sites, neutral and erotic sequences): improved significantly
RIGISCAN reading, effective in causing erections ([3]; all doses, erotic stimulation): greater than or equal to 15
Erection Results (Maximum) Percent Change from Baseline, LSMEAN ([4]; FEMALE, 4 mg): 33.57%
Erection Results (Maximum) Percent Change from Baseline, LSMEAN ([4]; FEMALE, 6 mg): 45.00%
Erection Results (Maximum) Percent Change from Baseline, LSMEAN ([4]; FEMALE, 8 mg): 59.00%
Erection Results (Maximum) Percent Change from Baseline, MEAN ([4]; FEMALE): 52.56% and 41.25% and 46.50% and 36.29%
Erection Results (Maximum) Percent Change from Baseline, LSMEAN ([4]; MALE, 4 mg): 55.71%
Erection Results (Maximum) Percent Change from Baseline, LSMEAN ([4]; MALE, 6 mg): 42.80%
Erection Results (Maximum) Percent Change from Baseline, LSMEAN ([4]; MALE, 8 mg): 31.86%
Erection Results (Maximum) Percent Change from Baseline, MEAN ([4]; MALE): 52.22% and 57.00% and 36.22% and 33.00%
erection rigidity, mean improvement ([4]; females): 34%
erection rigidity, maximum improvement from baseline ([4]; females (best at 8 mg)): 59%
erection rigidity, mean improvement ([4]; males): 29%
erection rigidity, maximum improvement from baseline ([4]; males (best at 4 mg)): 56%
Satisfaction (Maximum) Change from Baseline, LSMEAN ([5]; FEMALE, 4 mg, all sites): 41.86
Satisfaction (Maximum) Change from Baseline, LSMEAN ([5]; FEMALE, 6 mg, all sites): 40.60
Satisfaction (Maximum) Change from Baseline, LSMEAN ([5]; FEMALE, 8 mg, all sites): 62.33
Satisfaction (Maximum) Change from Baseline, MEAN ([5]; FEMALE, all doses, site #1, #2, #3, #4, listed as APO): 57.00 and 37.75 and 33.29
Satisfaction Percent Change from Baseline, LSMEAN ([5]; 4 mg, all sites): 49.14%
Satisfaction Percent Change from Baseline, LSMEAN ([5]; 6 mg, all sites): 51.47%
Satisfaction Percent Change from Baseline, MEAN ([5]; 6 mg, all sites, site #1, #2, #3, #4, listed as APO): 51.47% and 40.60% and 59.50% and 54.50% and 58.00%
Satisfaction Percent Change from Baseline, LSMEAN ([5]; 8 mg, all sites): 56.57%
Satisfaction Percent Change from Baseline, MEAN ([5]; all doses, b893 site #1, b897 #2, b901 #3, b905 #4, listed as APO): 58.00% and 48.50% and 49.56% and 50.00%
VAS satisfaction, mean improvement ([5]; females): 34%
VAS satisfaction, maximum improvement from baseline ([5]; females, 8 mg): 62%
VAS satisfaction, mean improvement ([5]; males): 45%
VAS satisfaction, maximum improvement from baseline ([5]; males, 8 mg): 57%
lethality at or above about 13 mg/kg ([6]; single bolus subcutaneous): reported lethal
LD50 [6]: > 50 mg/kg
adverse effects of multiple doses [7]: without major adverse effects
tolerated dose [8]: up to 13 mg/kg
Average Severity ([9]; oral 0.2 mg/kg): 0.00%
number of animals having nausea/vomiting ([9]; oral 0.2 mg/kg, 8 min, 4 animals per group): 0
number of animals having nausea/vomiting ([9]; oral 0.2 mg/kg, 15 min): 0
number of animals having nausea/vomiting ([9]; oral 0.2 mg/kg, 30 min): 0
Average Severity ([9]; subcutaneous 0.04 mg/kg): 150.00%
number of animals having nausea/vomiting ([9]; subcutaneous 0.04 mg/kg, 8 min, 4 animals per group): 4
number of animals having nausea/vomiting ([9]; subcutaneous 0.04 mg/kg, 15 min): 2
number of animals having nausea/vomiting ([9]; subcutaneous 0.04 mg/kg, 30 min): 0
Average Severity ([9]; sublingual 0.2 mg/kg): 50.00%
number of animals having nausea/vomiting ([9]; sublingual 0.2 mg/kg, 8 min, 4 animals per group): 0
number of animals having nausea/vomiting ([9]; sublingual 0.2 mg/kg, 15 min): 1
number of animals having nausea/vomiting ([9]; sublingual 0.2 mg/kg, 30 min): 1
